Reference: PMC9841527 (Journal of Medicinal Chemistry, 2022)

Columns and labels:
CcrM = CcrM (Caulobacter vibrioides, UniProt P0CAW2); assay type: biochemical, Caulobacter crescentus
MettL16 = target: T1, MettL16 (Homo sapiens, UniProt Q86W50); assay: Selectivity assay, MettL16; assay type: biochemical; conditions: [I] = 10 μM, [SAM] = 160 μM or 30 μM
T1 sequence (Q86W50 1-562): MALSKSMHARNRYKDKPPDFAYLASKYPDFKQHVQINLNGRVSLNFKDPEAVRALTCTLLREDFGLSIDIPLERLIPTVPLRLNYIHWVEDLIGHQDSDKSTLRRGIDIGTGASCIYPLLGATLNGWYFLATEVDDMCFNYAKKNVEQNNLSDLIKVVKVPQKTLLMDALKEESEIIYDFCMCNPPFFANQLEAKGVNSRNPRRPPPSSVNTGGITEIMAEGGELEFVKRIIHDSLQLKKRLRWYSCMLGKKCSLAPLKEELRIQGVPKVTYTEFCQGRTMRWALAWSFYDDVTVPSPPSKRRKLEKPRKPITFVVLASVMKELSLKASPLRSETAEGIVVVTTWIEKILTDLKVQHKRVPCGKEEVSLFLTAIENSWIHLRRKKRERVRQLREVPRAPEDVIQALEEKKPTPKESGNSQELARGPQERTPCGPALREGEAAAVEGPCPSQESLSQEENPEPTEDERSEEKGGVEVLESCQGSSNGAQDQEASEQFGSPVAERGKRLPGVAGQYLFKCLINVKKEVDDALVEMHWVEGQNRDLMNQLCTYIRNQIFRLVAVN

MettL5-Trm112 = MettL5-Trm112 (Homo sapiens, UniProt Q9NRN9); assay type: biochemical
Chain of MettL5-Trm112 (Q9NRN9 whole entry): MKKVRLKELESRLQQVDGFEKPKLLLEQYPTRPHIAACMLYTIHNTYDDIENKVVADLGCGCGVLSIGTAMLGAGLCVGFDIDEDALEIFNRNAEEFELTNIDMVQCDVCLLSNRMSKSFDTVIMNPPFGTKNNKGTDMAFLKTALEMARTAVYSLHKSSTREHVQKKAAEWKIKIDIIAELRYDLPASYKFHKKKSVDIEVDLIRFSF
Chain of MettL5-Trm112 (Q9UI30 whole entry partner): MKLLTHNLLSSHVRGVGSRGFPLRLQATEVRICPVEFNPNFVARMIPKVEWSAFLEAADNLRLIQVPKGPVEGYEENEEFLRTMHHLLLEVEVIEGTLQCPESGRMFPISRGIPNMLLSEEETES

G9a = target: T2, G9a (Homo sapiens, UniProt Q96KQ7); assay: Selectivity assay, G9a; assay type: biochemical; conditions: compound 10 μM, 3H-SAM 1 μM
T2 sequence (Q96KQ7 1-1210): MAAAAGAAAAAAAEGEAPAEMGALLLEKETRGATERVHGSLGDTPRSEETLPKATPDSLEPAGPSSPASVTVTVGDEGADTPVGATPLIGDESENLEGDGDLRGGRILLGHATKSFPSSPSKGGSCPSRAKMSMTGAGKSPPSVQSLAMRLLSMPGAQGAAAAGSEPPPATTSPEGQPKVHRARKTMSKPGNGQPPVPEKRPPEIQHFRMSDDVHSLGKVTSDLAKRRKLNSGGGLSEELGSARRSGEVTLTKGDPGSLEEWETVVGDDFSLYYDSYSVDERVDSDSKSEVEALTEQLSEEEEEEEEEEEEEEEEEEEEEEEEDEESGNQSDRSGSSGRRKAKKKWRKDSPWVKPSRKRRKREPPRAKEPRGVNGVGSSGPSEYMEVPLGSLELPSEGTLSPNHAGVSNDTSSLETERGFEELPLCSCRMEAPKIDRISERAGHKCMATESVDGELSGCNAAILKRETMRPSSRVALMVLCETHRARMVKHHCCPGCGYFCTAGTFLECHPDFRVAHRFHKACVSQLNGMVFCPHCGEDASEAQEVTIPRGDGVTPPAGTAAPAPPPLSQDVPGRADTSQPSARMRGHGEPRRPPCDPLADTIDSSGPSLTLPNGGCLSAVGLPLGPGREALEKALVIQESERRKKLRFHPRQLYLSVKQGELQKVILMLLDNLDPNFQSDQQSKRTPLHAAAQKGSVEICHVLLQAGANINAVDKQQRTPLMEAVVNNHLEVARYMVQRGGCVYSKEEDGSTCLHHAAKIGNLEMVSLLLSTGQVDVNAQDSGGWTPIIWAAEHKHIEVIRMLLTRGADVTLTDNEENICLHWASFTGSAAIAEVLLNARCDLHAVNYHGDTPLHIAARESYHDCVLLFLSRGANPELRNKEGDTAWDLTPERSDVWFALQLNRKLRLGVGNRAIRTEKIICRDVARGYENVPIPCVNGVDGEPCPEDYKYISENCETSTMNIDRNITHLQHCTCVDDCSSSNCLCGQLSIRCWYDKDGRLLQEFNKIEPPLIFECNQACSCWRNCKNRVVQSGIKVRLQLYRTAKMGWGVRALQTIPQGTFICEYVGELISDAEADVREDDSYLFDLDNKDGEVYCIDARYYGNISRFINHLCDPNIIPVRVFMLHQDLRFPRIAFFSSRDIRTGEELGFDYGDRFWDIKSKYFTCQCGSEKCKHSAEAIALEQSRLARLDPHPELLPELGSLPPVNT

EZH2 complex = EZH2 complex (Homo sapiens, UniProt Q15910); assay: Selectivity assay, EZH2 complex; assay type: biochemical; conditions: compound 10 μM, 3H-SAM 1 μM
Dam = target: T3, Dam (Escherichia coli, UniProt P0AEE8); assay type: biochemical
T3 sequence (P0AEE8 1-278): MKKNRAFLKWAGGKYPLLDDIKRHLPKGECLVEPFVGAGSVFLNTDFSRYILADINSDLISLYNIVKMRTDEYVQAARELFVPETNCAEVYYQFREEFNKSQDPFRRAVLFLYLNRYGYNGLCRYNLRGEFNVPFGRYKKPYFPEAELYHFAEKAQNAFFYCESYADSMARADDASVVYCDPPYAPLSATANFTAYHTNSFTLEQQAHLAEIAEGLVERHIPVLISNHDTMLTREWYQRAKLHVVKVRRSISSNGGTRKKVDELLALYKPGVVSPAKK

DOT1L = DOT1L (Homo sapiens, UniProt Q8TEK3); assay: Selectivity assay, DOT1L; assay type: biochemical; conditions: compound 10 μM, 3H-SAM 1 μM
Dnmt3a-Dnmt3L = Dnmt3a-Dnmt3L (Mus musculus, UniProt O88508); assay type: biochemical
CamA = target: T4, CamA (Clostridioides difficile, UniProt Q183J3); assay: Isothermal titration calorimetry; assay type: binding; conditions: from that of compound 37
T4 sequence (Q183J3 1-577): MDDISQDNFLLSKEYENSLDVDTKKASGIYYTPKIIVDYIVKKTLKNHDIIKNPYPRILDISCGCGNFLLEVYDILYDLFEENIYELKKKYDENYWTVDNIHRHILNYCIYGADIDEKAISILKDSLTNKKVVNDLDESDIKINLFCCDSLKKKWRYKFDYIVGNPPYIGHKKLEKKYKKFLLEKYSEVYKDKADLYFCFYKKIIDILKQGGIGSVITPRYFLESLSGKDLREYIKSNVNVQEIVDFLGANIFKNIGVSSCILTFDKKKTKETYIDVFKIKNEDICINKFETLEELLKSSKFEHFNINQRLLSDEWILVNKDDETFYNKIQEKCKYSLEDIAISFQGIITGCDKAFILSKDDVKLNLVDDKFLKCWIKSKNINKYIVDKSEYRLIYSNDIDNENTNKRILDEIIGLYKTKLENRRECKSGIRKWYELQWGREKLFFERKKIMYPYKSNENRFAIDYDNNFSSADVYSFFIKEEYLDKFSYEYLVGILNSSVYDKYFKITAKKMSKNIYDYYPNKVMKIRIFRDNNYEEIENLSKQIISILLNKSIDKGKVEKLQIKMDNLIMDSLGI

PRMT1 = PRMT1 (Homo sapiens, UniProt Q99873); assay: Selectivity assay, PRMT1; assay type: biochemical; conditions: compound 10 μM, 3H-SAM 1 μM
Chain of PRMT1 (Q99873 whole entry): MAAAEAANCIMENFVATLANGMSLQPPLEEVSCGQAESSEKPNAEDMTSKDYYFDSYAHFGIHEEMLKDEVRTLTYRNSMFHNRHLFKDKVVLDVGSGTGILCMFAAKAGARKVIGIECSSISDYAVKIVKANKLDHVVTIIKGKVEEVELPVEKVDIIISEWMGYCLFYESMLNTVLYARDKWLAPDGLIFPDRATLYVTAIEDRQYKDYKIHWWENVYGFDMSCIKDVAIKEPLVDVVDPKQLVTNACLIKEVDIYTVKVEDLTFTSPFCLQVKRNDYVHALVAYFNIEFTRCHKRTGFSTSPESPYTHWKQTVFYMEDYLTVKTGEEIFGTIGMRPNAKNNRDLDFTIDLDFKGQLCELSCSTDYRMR

[1] = target: T5, A1 adenosine receptor (A1AR) (Homo sapiens, UniProt P30542); assay: A1AR agonist radioligand binding assay; conditions: compound 10 μM, [3H]CCPA 1 nM, transfected CHO cell membranes
T5 sequence (P30542 1-326): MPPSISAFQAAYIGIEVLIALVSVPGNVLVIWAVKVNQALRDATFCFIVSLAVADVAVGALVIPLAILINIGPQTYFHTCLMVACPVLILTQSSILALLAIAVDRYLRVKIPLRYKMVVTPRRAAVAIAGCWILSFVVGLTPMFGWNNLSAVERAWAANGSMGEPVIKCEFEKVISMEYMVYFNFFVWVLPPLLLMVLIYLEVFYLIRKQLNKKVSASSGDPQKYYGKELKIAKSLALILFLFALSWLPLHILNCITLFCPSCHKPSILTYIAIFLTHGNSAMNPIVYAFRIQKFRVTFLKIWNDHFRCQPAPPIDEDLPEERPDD

MettL3-MettL14 = MettL3-MettL14 (Homo sapiens, UniProt Q86U44); assay: Selectivity assay, MettL3-MettL14; assay type: biochemical; conditions: [I] = 10 μM, [SAM] = 20 μM, 5 mM NaCl, or CamA conditions
Chain of MettL3-MettL14 (Q86U44 whole entry): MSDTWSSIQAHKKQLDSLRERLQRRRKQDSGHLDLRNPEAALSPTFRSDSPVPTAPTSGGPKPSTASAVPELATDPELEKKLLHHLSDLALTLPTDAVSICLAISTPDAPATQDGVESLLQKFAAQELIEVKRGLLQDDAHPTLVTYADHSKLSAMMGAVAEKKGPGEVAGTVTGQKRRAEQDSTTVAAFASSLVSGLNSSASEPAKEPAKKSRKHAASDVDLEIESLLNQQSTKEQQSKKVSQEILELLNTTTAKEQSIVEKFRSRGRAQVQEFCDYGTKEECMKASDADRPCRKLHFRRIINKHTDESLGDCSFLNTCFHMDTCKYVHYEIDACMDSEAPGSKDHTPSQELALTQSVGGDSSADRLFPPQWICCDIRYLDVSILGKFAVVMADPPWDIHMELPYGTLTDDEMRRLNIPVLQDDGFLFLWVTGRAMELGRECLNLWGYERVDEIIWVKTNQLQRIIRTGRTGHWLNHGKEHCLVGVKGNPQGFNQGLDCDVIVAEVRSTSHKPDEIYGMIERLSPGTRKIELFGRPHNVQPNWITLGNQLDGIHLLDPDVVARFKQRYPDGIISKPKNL
Chain of MettL3-MettL14 (Q9HCE5 whole entry partner): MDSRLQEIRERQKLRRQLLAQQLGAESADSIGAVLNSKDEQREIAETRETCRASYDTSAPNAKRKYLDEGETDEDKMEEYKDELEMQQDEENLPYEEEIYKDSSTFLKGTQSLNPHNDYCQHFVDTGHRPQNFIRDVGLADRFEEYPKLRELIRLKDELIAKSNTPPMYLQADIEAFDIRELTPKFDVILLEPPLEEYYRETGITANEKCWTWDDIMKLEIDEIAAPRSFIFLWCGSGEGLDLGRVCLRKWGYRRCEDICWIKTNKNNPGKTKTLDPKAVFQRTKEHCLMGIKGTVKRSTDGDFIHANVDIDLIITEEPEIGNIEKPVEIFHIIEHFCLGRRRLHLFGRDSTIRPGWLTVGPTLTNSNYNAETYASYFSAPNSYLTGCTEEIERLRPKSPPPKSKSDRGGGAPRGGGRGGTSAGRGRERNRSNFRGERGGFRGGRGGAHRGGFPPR

DNMT1 = DNMT1 (Homo sapiens, UniProt P26358); assay: Selectivity assay, DNMT1; assay type: biochemical; conditions: [I] = 10 μM, [SAM] = 5.5 μM, 37 °C
Chain of DNMT1 (P26358 351-1600): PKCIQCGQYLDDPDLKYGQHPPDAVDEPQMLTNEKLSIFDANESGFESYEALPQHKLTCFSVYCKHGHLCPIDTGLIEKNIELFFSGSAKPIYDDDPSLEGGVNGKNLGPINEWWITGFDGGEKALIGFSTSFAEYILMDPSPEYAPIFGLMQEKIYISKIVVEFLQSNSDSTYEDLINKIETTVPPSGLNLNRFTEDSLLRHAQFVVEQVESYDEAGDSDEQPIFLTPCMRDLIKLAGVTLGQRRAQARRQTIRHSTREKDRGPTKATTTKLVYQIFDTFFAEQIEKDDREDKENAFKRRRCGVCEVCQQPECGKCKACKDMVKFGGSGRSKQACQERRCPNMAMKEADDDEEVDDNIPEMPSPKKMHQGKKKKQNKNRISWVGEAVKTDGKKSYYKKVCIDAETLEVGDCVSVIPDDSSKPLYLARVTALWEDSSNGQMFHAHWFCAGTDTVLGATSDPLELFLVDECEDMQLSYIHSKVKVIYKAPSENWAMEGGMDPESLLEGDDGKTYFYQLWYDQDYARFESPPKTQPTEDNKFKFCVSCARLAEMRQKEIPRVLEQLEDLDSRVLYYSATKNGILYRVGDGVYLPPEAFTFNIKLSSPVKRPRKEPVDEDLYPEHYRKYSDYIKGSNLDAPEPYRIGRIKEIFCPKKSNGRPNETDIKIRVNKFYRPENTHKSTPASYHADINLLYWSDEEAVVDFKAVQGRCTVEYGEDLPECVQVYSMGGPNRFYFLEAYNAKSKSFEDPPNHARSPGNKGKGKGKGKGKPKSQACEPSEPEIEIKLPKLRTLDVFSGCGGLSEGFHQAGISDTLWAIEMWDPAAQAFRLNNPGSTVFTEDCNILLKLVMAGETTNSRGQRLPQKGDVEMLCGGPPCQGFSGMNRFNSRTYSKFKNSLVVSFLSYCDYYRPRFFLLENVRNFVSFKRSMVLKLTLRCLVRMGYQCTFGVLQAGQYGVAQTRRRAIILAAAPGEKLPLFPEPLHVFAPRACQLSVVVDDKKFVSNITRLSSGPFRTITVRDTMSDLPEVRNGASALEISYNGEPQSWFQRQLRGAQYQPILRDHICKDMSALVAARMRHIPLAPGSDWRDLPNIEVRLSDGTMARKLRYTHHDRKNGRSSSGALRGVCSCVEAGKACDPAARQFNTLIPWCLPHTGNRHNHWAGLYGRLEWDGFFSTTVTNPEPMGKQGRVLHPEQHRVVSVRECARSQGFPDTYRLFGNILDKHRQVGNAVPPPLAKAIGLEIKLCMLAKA

PCIF1 = PCIF1 (Homo sapiens, UniProt Q9H4Z3); assay type: biochemical
Chain of PCIF1 (Q9H4Z3 whole entry): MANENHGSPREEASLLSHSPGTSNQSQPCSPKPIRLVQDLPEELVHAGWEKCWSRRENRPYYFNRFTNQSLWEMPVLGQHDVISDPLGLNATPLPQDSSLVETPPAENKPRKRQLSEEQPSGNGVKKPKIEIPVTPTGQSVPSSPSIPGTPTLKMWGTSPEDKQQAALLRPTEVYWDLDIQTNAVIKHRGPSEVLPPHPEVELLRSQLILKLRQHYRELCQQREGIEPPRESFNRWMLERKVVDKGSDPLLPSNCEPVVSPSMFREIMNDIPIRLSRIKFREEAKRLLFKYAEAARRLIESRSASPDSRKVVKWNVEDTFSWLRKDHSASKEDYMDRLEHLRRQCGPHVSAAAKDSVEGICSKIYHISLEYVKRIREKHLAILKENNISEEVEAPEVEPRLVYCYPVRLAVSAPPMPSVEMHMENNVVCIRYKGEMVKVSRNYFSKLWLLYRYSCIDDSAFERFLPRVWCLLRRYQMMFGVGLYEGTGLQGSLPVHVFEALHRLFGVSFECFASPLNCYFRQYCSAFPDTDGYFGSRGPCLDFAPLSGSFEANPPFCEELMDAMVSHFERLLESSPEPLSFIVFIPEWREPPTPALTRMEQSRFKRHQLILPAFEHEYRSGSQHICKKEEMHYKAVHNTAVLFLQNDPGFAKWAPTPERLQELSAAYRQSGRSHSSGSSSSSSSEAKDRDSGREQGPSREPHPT

Chain of CcrM (P0CAW2 whole entry): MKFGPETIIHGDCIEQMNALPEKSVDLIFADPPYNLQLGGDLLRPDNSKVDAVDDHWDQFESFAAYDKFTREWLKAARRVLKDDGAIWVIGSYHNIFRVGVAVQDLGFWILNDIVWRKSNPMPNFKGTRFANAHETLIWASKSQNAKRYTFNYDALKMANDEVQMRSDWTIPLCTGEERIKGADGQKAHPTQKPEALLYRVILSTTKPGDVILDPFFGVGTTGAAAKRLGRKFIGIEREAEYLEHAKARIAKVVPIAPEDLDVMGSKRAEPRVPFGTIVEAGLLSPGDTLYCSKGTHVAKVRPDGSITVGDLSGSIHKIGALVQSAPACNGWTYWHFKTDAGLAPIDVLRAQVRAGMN

CC(C)(C)OC(=O)N1CCC(CCNc2ncnc3c2ncn3[C@@H]2O[C@H](CO)[C@@H](O)[C@H]2O)CC1 [Compound 38, tert-Butyl-4-(2-((9-((2R,3R,4S,5R)-3,4-dihydroxy-5-(hydroxymethyl)tetrahydrofuran-2-yl)-9H-purin-6-yl)amino)ethyl)piperidine-1-carboxylate]
inhibition of CcrM (CcrM): none of them showed any significant inhibition
inhibition of MettL16 (MettL16): none of them showed any significant inhibition
inhibition of MettL5-Trm112 (MettL5-Trm112): none of them showed any significant inhibition
inhibition of G9a (G9a): none of them showed any significant inhibition
inhibition of EZH2 complex (EZH2 complex): none of them showed any significant inhibition
inhibition of Dam (Dam): none of them showed any significant inhibition
inhibition of DOT1L (DOT1L): none of them showed any significant inhibition
inhibition of Dnmt3a-Dnmt3L (Dnmt3a-Dnmt3L): none of them showed any significant inhibition
KD improved, fold (CamA): ~8 ×
inhibition of PRMT1 (PRMT1): none of them showed any significant inhibition
inhibition of control radioligand specific binding, A1AR [1]: minimal inhibition of specific binding
inhibition of MettL3-MettL14 (MettL3-MettL14): none of them showed any significant inhibition
inhibition of DNMT1 (DNMT1): none of them showed any significant inhibition
inhibition of PCIF1 (PCIF1): none of them showed any significant inhibition
